Consider four molecules from patent EP4725957A1, “GROUP OF CYCLIC ALKALINE LIPOPEPTIDE COMPOUNDS, AND PREPARATION METHOD THEREFOR AND USE THEREOF” (Institute of Medicinal Biotechnology, Chinese Academy of …, priority 2023, dated 2024).

≈ marks a conversion by molar mass, not a printed value. Bridge positions count the residues as written; N and C are the ends. Square brackets hold non-standard residues; d marks the D form. Peptide text beside a SMILES is read from it. * marks the point of attachment. Heptanoyl(6-Me) = CC(C)CCCCC(=O)*; Nonanoyl = CCCCCCCCC(=O)*; Heptanoyl = CCCCCCC(=O)*; Octanoyl = CCCCCCCC(=O)*; Orn = NCCC[C@H](N)C(=O)O; Dab = NCC[C@H](N)C(=O)O Bounds are passed on as bounds.

Holding throughout (type): cell-based
In data set [1] the test system is Acinetobacter baumannii ABA19-1. As to conditions: ABA19-1. The method, boiled down:
(§1)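 Broth microdilution per CLSI in Mueller-Hinton broth. Compounds were tested at final concentrations of 64 to 0.03 mg/L (two-fold steps) against an inoculum of (2-4) × 10^5 CFU/mL, with incubation at 35-37°C for 16-20 h to give the MIC.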

The subject of data set [2] is Acinetobacter baumannii NCTC 13304 (OXA-27). As to conditions: NCTC 13304. Put shortly:
as §1

Data set [3] has as its system Escherichia coli ATCC BAA-2340 (KPC). As to conditions: ATCC BAA-2340. The method, boiled down:
as §1

For data set [4], the system named is Escherichia coli ATCC BAA-2523. As to conditions: ATCC BAA-2523. The method, boiled down: as §1
In data set [5] the test system is Klebsiella pneumoniae ATCC BAA-1705 (KPC). As to conditions: ATCC BAA-1705. Put shortly: as §1
Data set [6] deals with Klebsiella pneumoniae KPN+19-15. As to conditions: KPN+19-15. The method, boiled down: as §1
Data set [7] relates to Pseudomonas aeruginosa ATCC 27853. As to conditions: ATCC 27853. The method, boiled down: as §1
Data set [8] has as its system Pseudomonas aeruginosa PAE19-3. As to conditions: PAE19-3. Put shortly:
as §1

Data set [9] can be described thus: Nephrotoxicity assay: in vitro cytotoxicity of HK-2 cells by CCK-8 assay. As to conditions: human, HK-2 cells (human renal), 72 h incubation with drug-containing medium. Put shortly:
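HK-2 human renal cells in RPMI-1640 with 10% FBS were exposed to compounds at final 12.5–500 µg/mL for 72 h, then CCK-8 for 3 h and OD450 read. Viability was normalised to drug-free wells; IC50 came from logarithmic regression over three repeats, with polymyxin B as positive drug.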

On to `CC(C)CCCCC(=O)N[C@@H](CCN)C(=O)N[C@H](C(=O)N[C@@H](CCCN)C(=O)N[C@H]1CCNC(=O)[C@H]([C@@H](C)O)NC(=O)[C@H](CCN)NC(=O)[C@H](CCN)NC(=O)[C@H](CC(C)C)NC(=O)[C@@H](Cc2ccccc2)NC(=O)[C@H](CCN)NC1=O)[C@@H](C)O` [Compound 47, 6-methylheptanoyl-Dab-Thr-Orn-ring(4-10)[Dab-Dab-D-Phe-Leu-Dab-Dab-Thr]] ({Heptanoyl(6-Me)}-[Dab]T[Orn][Dab][Dab][dF]L[Dab][Dab]T; lactam 4-C), for which the minimal inhibitory concentration (MIC) (commonly the smallest concentration in the dilution series that meets the test's criterion for growth inhibition) in [1] is on record as 0.125 µg/mL (≈ 0.104 µM); in data set [2] it was 0.06 µg/mL (≈ 0.0499 µM); in data set [3], 0.03 µg/mL (≈ 0.0249 µM); in data set [4], 0.03 µg/mL (≈ 0.0249 µM); in data set [5], at most 0.03 µg/mL; in data set [6], at most 0.03 µg/mL. Also, the MIC in [7] is reported as at most 0.03 µg/mL; in data set [8], 0.25 µg/mL (≈ 0.208 µM). Besides, in data set [9], the IC50 (usually the concentration at which inhibition is half-maximal) at 72 h was determined as 358 ± 11.2 µg/mL (≈ 297 µM).
Turning to `CCCCCCCC(=O)N[C@@H](CCN)C(=O)N[C@H](C(=O)N[C@@H](CCCN)C(=O)N[C@H]1CCNC(=O)[C@H]([C@@H](C)O)NC(=O)[C@H](CCN)NC(=O)[C@H](CCN)NC(=O)[C@H](CC(C)C)NC(=O)[C@@H](Cc2ccccc2)NC(=O)[C@H](CCN)NC1=O)[C@@H](C)O` [Compound 48, Octanoyl-Dab-Thr-Orn-ring(4-10)[Dab-Dab-D-Phe-Leu-Dab-Dab-Thr]] (Octanoyl-[Dab]T[Orn][Dab][Dab][dF]L[Dab][Dab]T; lactam 4-C), the MIC in data set [1] was 0.125 µg/mL (≈ 0.104 µM); in data set [2], 0.06 µg/mL (≈ 0.0499 µM); in data set [3] it was 0.03 µg/mL (≈ 0.0249 µM); in data set [4], 0.03 µg/mL (≈ 0.0249 µM); in [5], at most 0.03 µg/mL; in data set [6], at most 0.03 µg/mL. The MIC was at most 0.03 µg/mL in data set [7] and 0.25 µg/mL (≈ 0.208 µM) in data set [8]. For the same molecule, the concentration for half-maximal inhibition (IC50) at 72 h in data set [9] came out at 239 ± 7.4 µg/mL (≈ 199 µM).
For `CCCCCCC(=O)N[C@@H](CCN)C(=O)N[C@H](C(=O)N[C@@H](CCCN)C(=O)N[C@H]1CCNC(=O)[C@H]([C@@H](C)O)NC(=O)[C@H](CCN)NC(=O)[C@H](CCN)NC(=O)[C@H](CC(C)C)NC(=O)[C@@H](Cc2ccccc2)NC(=O)[C@H](CCN)NC1=O)[C@@H](C)O` [Compound 49, Heptanoyl-Dab-Thr-Orn-ring(4-10)[Dab-Dab-D-Phe-Leu-Dab-Dab-Thr]] (Heptanoyl-[Dab]T[Orn][Dab][Dab][dF]L[Dab][Dab]T; lactam 4-C), the MIC in [1] is recorded as 0.125 µg/mL (≈ 0.105 µM); in [2], 0.06 µg/mL (≈ 0.0504 µM); in data set [3] it was 0.03 µg/mL (≈ 0.0252 µM); in data set [4], 0.03 µg/mL (≈ 0.0252 µM); in [5], 0.03 µg/mL (≈ 0.0252 µM); in data set [6], 0.03 µg/mL (≈ 0.0252 µM). Moreover, the minimum inhibitory concentration (MIC) is on record as 0.03 µg/mL (≈ 0.0252 µM) in data set [7] and 0.5 µg/mL (≈ 0.42 µM) in [8]. Also, in [9], the IC50 at 72 h is 367 ± 8.7 µg/mL (≈ 309 µM).
`CCCCCCCCC(=O)N[C@@H](CCN)C(=O)N[C@H](C(=O)N[C@@H](CCCN)C(=O)N[C@H]1CCNC(=O)[C@H]([C@@H](C)O)NC(=O)[C@H](CCN)NC(=O)[C@H](CCN)NC(=O)[C@H](CC(C)C)NC(=O)[C@@H](Cc2ccccc2)NC(=O)[C@H](CCN)NC1=O)[C@@H](C)O` [Compound 50, Nonanoyl-Dab-Thr-Orn-ring(4-10)[Dab-Dab-D-Phe-Leu-Dab-Dab-Thr]] (Nonanoyl-[Dab]T[Orn][Dab][Dab][dF]L[Dab][Dab]T; lactam 4-C): the minimum inhibitory concentration (MIC) in data set [1] came out at 0.125 µg/mL (≈ 0.103 µM); in data set [2], 0.06 µg/mL (≈ 0.0493 µM); in data set [3] it was 0.06 µg/mL (≈ 0.0493 µM); in data set [4], 0.06 µg/mL (≈ 0.0493 µM); in data set [5] it was 0.03 µg/mL (≈ 0.0246 µM); in data set [6], 0.03 µg/mL (≈ 0.0246 µM). For the same molecule, the values for the minimum inhibitory concentration (MIC) in data set [7] and in data set [8] were 0.03 µg/mL (≈ 0.0246 µM) and 0.5 µg/mL (≈ 0.411 µM), respectively. Besides, the concentration for half-maximal inhibition (IC50) at 72 h in data set [9] is 150 ± 5.2 µg/mL (≈ 123 µM).
